Source: the NIST ThermoML archive (doi:10.1007/s10765-014-1617-1)

How the values were obtained:
[1] = refractive index (Na D-line) (dimensionless); conditions: 101.33 kPa, Liquid, Standard Abbe refractometry
[2] = 101.33 kPa, Liquid; for thermal conductivity: Parallel plate method; for mass density: Vibrating tube method

CCCCn1cc[n+](C)c1.N#C[B-](C#N)(C#N)C#N [1-butyl-3-methyl-1H-imidazolium tetracyanoborate]
Conditions | mass density, [2] [kg/m3] | refractive index, [1] | thermal conductivity, [2] [W/m/K]
283.15 K | 1021.17 | 1.4561 | 0.178
288.15 K | 1017.37 | – | –
293.15 K | 1013.59 | 1.4533 | 0.1791
298.15 K | 1009.83 | – | –
303.15 K | 1006.09 | 1.45 | 0.1756
308.15 K | 1002.37 | – | –
313.15 K | 998.67 | 1.4473 | 0.1737
318.15 K | 995 | – | –
323.15 K | 991.34 | – | 0.1732
328.15 K | 987.71 | – | –
333.15 K | 984.09 | – | 0.1693
338.15 K | 980.5 | – | –
343.15 K | 976.92 | – | 0.1664
348.15 K | 973.37 | – | –
353.15 K | 969.82 | – | 0.1632
358.15 K | 966.3 | – | –
363.15 K | 962.8 | – | –

CCCCCCCCCCn1cc[n+](C)c1.N#C[B-](C#N)(C#N)C#N [1-decyl-3-methyl-1H-imidazolium tetracyanoborate]
Conditions | mass density, [2] [kg/m3] | refractive index, [1] | thermal conductivity, [2] [W/m/K]
283.15 K | 972.81 | 1.4612 | 0.1665
288.15 K | 969.36 | – | –
293.15 K | 965.94 | 1.4584 | 0.1673
298.15 K | 962.51 | – | –
303.15 K | 959.09 | 1.4552 | 0.1667
308.15 K | 955.68 | – | –
313.15 K | 952.29 | 1.4522 | 0.1646
318.15 K | 948.91 | – | –
323.15 K | 945.54 | – | 0.164
328.15 K | 942.19 | – | –
333.15 K | 938.85 | – | 0.1613
338.15 K | 935.53 | – | –
343.15 K | 932.22 | – | 0.16
348.15 K | 928.94 | – | –
353.15 K | 925.65 | – | 0.1586
358.15 K | 922.39 | – | –
363.15 K | 919.14 | – | –

CCn1cc[n+](C)c1.N#C[C-](C#N)C#N [1-ethyl-3-methyl-1H-imidazolium tricyanomethanide]
Conditions | mass density, [2] [kg/m3] | refractive index, [1] | thermal conductivity, [2] [W/m/K]
283.15 K | 1091.96 | 1.516 | 0.1966
288.15 K | 1088.37 | – | –
293.15 K | 1084.8 | 1.5131 | 0.1958
298.15 K | 1081.25 | – | –
303.15 K | 1077.71 | 1.5101 | 0.1955
308.15 K | 1074.19 | – | –
313.15 K | 1070.69 | 1.5071 | 0.1928
318.15 K | 1067.21 | – | –
323.15 K | 1063.74 | – | 0.1917
328.15 K | 1060.29 | – | –
333.15 K | 1056.86 | – | 0.1896
338.15 K | 1053.44 | – | –
343.15 K | 1050.04 | – | 0.1883
348.15 K | 1046.66 | – | –
353.15 K | 1043.28 | – | 0.1874
358.15 K | 1039.93 | – | –
363.15 K | 1036.58 | – | –

CCCCCCn1cc[n+](C)c1.N#C[B-](C#N)(C#N)C#N [1-hexyl-3-methylimidazolium tetracyanoborate]
[2]
Conditions | thermal conductivity [W/m/K]
283.15 K | 0.1762
293.15 K | 0.1752
303.15 K | 0.1741
313.15 K | 0.1714
323.15 K | 0.1722
333.15 K | 0.1697
343.15 K | 0.1677
353.15 K | 0.1656

CCCCCCCCn1cc[n+](C)c1.N#C[B-](C#N)(C#N)C#N [1-methyl-3-octylimidazolium tetracyanoborate]
Conditions | mass density, [2] [kg/m3] | refractive index, [1] | thermal conductivity, [2] [W/m/K]
283.15 K | 985.65 | 1.4603 | 0.1703
288.15 K | 982.14 | – | –
293.15 K | 978.62 | 1.457 | 0.1694
298.15 K | 975.1 | – | –
303.15 K | 971.6 | 1.4541 | 0.1682
308.15 K | 968.12 | – | –
313.15 K | 964.65 | 1.4509 | 0.1644
318.15 K | 961.2 | – | –
323.15 K | 957.76 | – | 0.1586
328.15 K | 954.34 | – | –
333.15 K | 950.94 | – | 0.1573
338.15 K | 947.55 | – | –
343.15 K | 944.17 | – | 0.1543
348.15 K | 940.82 | – | –
353.15 K | 937.45 | – | 0.1513
358.15 K | 934.15 | – | –
363.15 K | 930.84 | – | –

CCCCCCCCn1cc[n+](C)c1.N#CC(=C=[N-])C#N [1-methyl-3-octylimidazolium tricyanomethanide]
Conditions | mass density, [2] [kg/m3] | refractive index, [1] | thermal conductivity, [2] [W/m/K]
283.15 K | 1010.18 | 1.5048 | 0.1717
288.15 K | 1006.97 | – | –
293.15 K | 1003.75 | 1.5021 | 0.1689
298.15 K | 1000.54 | – | –
303.15 K | 997.34 | 1.4993 | 0.1675
308.15 K | 994.15 | – | –
313.15 K | 990.97 | 1.4964 | 0.1685
318.15 K | 987.8 | – | –
323.15 K | 984.65 | – | 0.1678
328.15 K | 981.5 | – | –
333.15 K | 978.37 | – | 0.1655
338.15 K | 975.25 | – | –
343.15 K | 972.14 | – | 0.1642
348.15 K | 969.05 | – | –
353.15 K | 965.97 | – | 0.1639
358.15 K | 962.89 | – | –
363.15 K | 959.82 | – | –

CCCCCCCCCC[n+]1ccn(C)c1.N#C[C-](C#N)C#N [3-decyl-1-methylimidazolium tricyanomethanide]
Conditions | mass density, [2] [kg/m3] | refractive index, [1] | thermal conductivity, [2] [W/m/K]
283.15 K | 992.5 | 1.5008 | 0.168
288.15 K | 989.38 | – | –
293.15 K | 986.25 | 1.4981 | 0.1694
298.15 K | 983.11 | – | –
303.15 K | 979.98 | 1.495 | 0.1674
308.15 K | 976.85 | – | –
313.15 K | 973.73 | 1.4918 | 0.1676
318.15 K | 970.63 | – | –
323.15 K | 967.53 | – | 0.1673
328.15 K | 964.44 | – | –
333.15 K | 961.37 | – | 0.1646
338.15 K | 958.31 | – | –
343.15 K | 955.24 | – | 0.162
348.15 K | 952.2 | – | –
353.15 K | 949.17 | – | 0.1593
358.15 K | 946.15 | – | –
363.15 K | 943.13 | – | –

CCCCCC[n+]1ccn(C)c1.N#C[C-](C#N)C#N [3-hexyl-1-methylimidazolium tricyanomethanide]
Conditions | mass density, [2] [kg/m3] | refractive index, [1] | thermal conductivity, [2] [W/m/K]
283.15 K | 1030.55 | 1.5084 | 0.1817
288.15 K | 1027.22 | – | –
293.15 K | 1023.92 | 1.5055 | 0.1815
298.15 K | 1020.62 | – | –
303.15 K | 1017.35 | 1.5026 | 0.1831
308.15 K | 1014.08 | – | –
313.15 K | 1010.83 | 1.4994 | 0.1817
318.15 K | 1007.58 | – | –
323.15 K | 1004.35 | – | 0.181
328.15 K | 1001.14 | – | –
333.15 K | 997.93 | – | 0.1792
338.15 K | 994.74 | – | –
343.15 K | 991.57 | – | 0.1774
348.15 K | 988.4 | – | –
353.15 K | 985.24 | – | 0.1762
358.15 K | 982.11 | – | –
363.15 K | 978.98 | – | –
